Values after ≈ are worked out from the molar mass of the structure shown. Where two headings read alike, the source gives them in different places.
Assays:
[1] = system: Staphylococcus aureus ATCC 29213; test: Antibacterial activity, dilution susceptibility test (CLSI M07-A10); format: cell-based; details: ATCC29213
[2] = system: Staphylococcus aureus ATCC BAA-1556 (MERSA resistant); test: as above; format: cell-based; details: ATCCBAA1556
[3] = system: Pseudomonas aeruginosa MTCC 741; test: as above; format: cell-based; details: MTCC741
[4] = target: T1, DNA gyrase from E. coli (Escherichia coli, UniProt P0AES4+P0AES6); test: Inhibitory activity on E. coli DNA gyrase (Inspiralis assay); format: biochemical
T1 construct: purchased Inspiralis
T1 sequence (P0AES4 whole entry, one chain of several): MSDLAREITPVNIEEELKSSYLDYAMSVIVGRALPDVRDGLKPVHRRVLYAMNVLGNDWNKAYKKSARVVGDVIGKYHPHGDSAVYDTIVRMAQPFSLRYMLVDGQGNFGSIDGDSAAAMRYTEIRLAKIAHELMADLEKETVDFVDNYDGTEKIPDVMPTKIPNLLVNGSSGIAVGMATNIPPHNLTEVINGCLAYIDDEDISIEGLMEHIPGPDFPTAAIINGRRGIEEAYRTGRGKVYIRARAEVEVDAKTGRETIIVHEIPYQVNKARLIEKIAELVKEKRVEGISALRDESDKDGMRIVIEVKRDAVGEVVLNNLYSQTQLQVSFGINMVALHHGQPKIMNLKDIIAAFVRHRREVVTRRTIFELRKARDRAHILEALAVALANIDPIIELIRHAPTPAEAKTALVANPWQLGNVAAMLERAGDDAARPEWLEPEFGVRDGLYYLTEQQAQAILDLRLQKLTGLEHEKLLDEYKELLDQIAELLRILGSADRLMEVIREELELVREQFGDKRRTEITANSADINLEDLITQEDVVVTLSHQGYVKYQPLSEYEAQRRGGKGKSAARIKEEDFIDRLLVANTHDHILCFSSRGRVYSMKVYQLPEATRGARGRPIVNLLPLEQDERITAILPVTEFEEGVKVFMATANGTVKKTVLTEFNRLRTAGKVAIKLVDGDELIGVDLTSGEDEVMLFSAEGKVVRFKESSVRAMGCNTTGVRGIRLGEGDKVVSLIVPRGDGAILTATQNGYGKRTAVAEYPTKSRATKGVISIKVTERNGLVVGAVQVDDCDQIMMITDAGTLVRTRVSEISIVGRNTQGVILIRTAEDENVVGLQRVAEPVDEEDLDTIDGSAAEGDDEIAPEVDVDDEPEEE
Description: Inhibitory potencies were investigated utilizing the Inspiralis assay on streptavidin-coated 96-well microtiter plates. First, the plates were rehydrated with buffer (20 mM Tris-HCl with pH 7.6, 0.01% w/v BSA, 0.05% v/v Tween 20, 137 mM NaCl) and the biotinylated oligonucleotide was then immobilized. After washing off the unbound oligonucleotide, the enzyme test was performed. […] Reaction solutions were incubated at 37° C. for 30 min. After that, the TF buffer (50 mM NaOAc with pH 5.0, 50 mM NaCl and 50 mM MgCl2) was added to terminate the enzymatic reaction. After additional incubation for 30 min at rt, during which biotinoligonucleotide-plasmid triplex was formed, the unbound plasmid was washed off using TF buffer and SybrGOLD in T10 buffer (10 mM Tris HCl with pH 8.0 and 1 mM EDTA) was added. The fluorescence was measured with a microplate reader (BioTek Synergy H4, excitation: 485 nm, emission: 535 nm). Initial screening was done at 100 or 10 μM concentration of inhibitors. […] GraphPad Prism software was used to calculate the IC50 values. The result is given as the average value of three independent measurements.

[5] = system: Enterococcus faecium ATCC 51559 (VRE resistant); test: Antibacterial activity, dilution susceptibility test (CLSI M07-A10); format: cell-based
[6] = system: Bacillus subtilis MTCC 441; test: as above; format: cell-based; details: MTCC441
[7] = system: Klebsiella pneumonia MTCC 618; test: as above; format: cell-based; details: Klebsiella pneumoniae, MTCC618
[8] = system: Staphylococcus epidermidis; test: as above; format: cell-based
[9] = system: Escherichia coli MTCC 443; test: as above; format: cell-based; details: MTCC443
[10] = system: Enterococcus faecium ATCC 35667; test: as above; format: cell-based; details: ATCC35667
[11] = system: Mycobacterium tuberculosis H37Rv strain; test: Anti-tubercular properties, alamar blue microplate MIC; format: cell-based; details: 168 h, M. tuberculosis H37Rv, seven days at 37° C., read-out: anti-mycobacterial activity (MIC)

Q: CNc1cc(F)cc2c(/C=C/C(=O)c3ccc(C(=O)O)cc3)c[nH]c12 [Compound 1, (E)-4-(3-(5-fluoro-7-(methylamino)-1H-indol-3-yl)acryloyl)benzoic acid] was tested. Which MIC [1] did it give?
A: The MIC was 0.75 µg/mL (≈ 2.22 µM).

Q: And the MIC [2]?
A: Its MIC is 0.75 µg/mL (≈ 2.22 µM).

Q: What about the MIC ([3]; Pseudomonas aeruginosa MTCC 741, read-out: MIC) of the same compound?
A: Its MIC is 0.5 µg/mL (≈ 1.48 µM).

Q: And the IC50 [4]?
A: The IC50 was 150 nM.

Q: What about the MIC ([5]; Enterococcus faecium ATCC 51559 (VRE resistant), read-out: MIC) of the same compound?
A: Its MIC is 0.5 µg/mL (≈ 1.48 µM).

Q: What about the MIC ([6]; Bacillus subtilis MTCC 441, read-out: MIC) of the same compound?
A: The MIC was 0.25 µg/mL (≈ 0.739 µM).

Q: What about the MIC ([7]; Klebsiella pneumonia MTCC 618, read-out: MIC) of the same compound?
A: The MIC was 0.75 µg/mL (≈ 2.22 µM).

Q: What about the MIC ([8]; read-out: MIC) of the same compound?
A: The MIC was 1 µg/mL (≈ 2.96 µM).

Q: And the MIC ([9]; Escherichia coli MTCC 443, read-out: MIC)?
A: Its MIC is 0.75 µg/mL (≈ 2.22 µM).

Q: What about the MIC ([10]; Enterococcus faecium ATCC 35667, read-out: MIC) of the same compound?
A: Its MIC is 1 µg/mL (≈ 2.96 µM).

Q: What about the MIC [11] of the same compound?
A: The MIC was 2 µg/mL (≈ 5.91 µM).

Q: What does the source list for CN[C@H](CC(C)C)C(=O)N[C@H]1C(=O)N[C@@H](CC(N)=O)C(=O)N[C@H]2C(=O)N[C@H]3C(=O)N[C@H](C(=O)N[C@H](C(=O)O)c4cc(O)cc(O)c4-c4cc3ccc4O)[C@H](O)c3ccc(c(Cl)c3)Oc3cc2cc(c3O[C@@H]2O[C@H](CO)[C@@H](O)[C@H](O)[C@H]2O[C@H]2C[C@](C)(N)[C@H](O)[C@H](C)O2)Oc2ccc(cc2Cl)[C@H]1O [Vancomycin, reference compound]?
A: MIC ([3]; Pseudomonas aeruginosa): > 128 µg/mL; MIC ([5]; Enterococcus faecium): > 128 µg/mL; MIC ([6]; Bacillus subtilis): 0.5 µg/mL (≈ 0.345 µM); MIC [7]: > 128 µg/mL; MIC [8]: 1 µg/mL (≈ 0.69 µM); MIC ([9]; Escherichia coli): > 128 µg/mL; MIC ([10]; Enterococcus faecium): 0.5 µg/mL (≈ 0.345 µM)
